This is an account of results in patent US20250000819A1, “Anti-hypoxic/anoxic injury use of a magnolol and/or honokiol aromatic ring amino-substituted derivative, and a pharmaceutical composition” (BEIJING HONGHUI MEDITECH CO., LTD., priority 2021, published 2025).

Common to all, as to format: in vivo, rat
The subject of test [1] is SD male rats, hypoxia (the oxygen content was 11%) treatment. The test is described as follows: Respiratory rate evaluated during blood collection in hypoxia-treated rats. The conditions noted are these: p<0.05. On the procedure: (§1) 2. Animal model: SPF-grade SD male rats, 220-240 g of the weight, and hypoxia (the oxygen content was 11%) treatment. 4. Administration mode: before the hypoxia treatment, a single intravenous injection was administered to each rat in the hypoxia treatment administration group. 6. Respiratory rate: the rat respiratory rate was evaluated during blood collection. 2. Animal model: SPF-grade SD male rats, 220-240 g of the weight, and hypoxia (the oxygen content was 11%) treatment. 4. Administration mode: before the hypoxia treatment, a single intravenous injection was administered to each rat in the hypoxia treatment administration group. 6. Respiratory rate: the rat respiratory rate was evaluated during blood collection. 2. Animal model: SPF-grade SD male rats, 220-240 g of the weight, and hypoxia (the oxygen content was 11%) treatment. 4. Administration mode: single gavage administration of each rat in the hypoxic treatment group prior to hypoxic treatment. 6. Respiratory rate: the rat respiratory rate was evaluated during blood collection. 2. Animal model: SPF-grade SD male rats, 220-240 g of the weight, and hypoxia (the oxygen content was 11%) treatment. 4. Administration mode: before the hypoxia treatment, a single intravenous injection was administered to each rat in the hypoxia treatment administration group. 2. Animal model: SPF-grade SD male rats, 220-240 g of the weight, and hypoxia (the oxygen content was 11%) treatment. 4. Administration mode: before the hypoxia treatment, a single intravenous injection was administered to each rat in the hypoxia treatment administration group. 6. Respiratory rate: the rat respiratory rate was evaluated during blood collection.

Test [2] shares this test system. The test is described as follows: Blood gas analysis of femoral artery blood in hypoxia-treated rats. On the procedure: as §1, with “treatment. 3. Experimental grouping: a hypoxia treatment control group, there were 4 rats in each group; and a hypoxia treatment administration group, there were 4 rats in each group.” for “treatment.”, “group. 5. […]” for “group. 6. Respiratory rate: the rat respiratory rate was evaluated during blood collection.”, “treatment. 5. […]” for “treatment. 6. Respiratory rate: the rat respiratory rate was evaluated during blood collection.”, “group. 5. […]” for “group.”

Test [3] relates to lung tissues of SD rats, hypoxia (the oxygen content was 11%) treatment. Nature of the test: H&E staining / pathological analysis of lung tissue paraffin sections after hypoxia treatment. The following applies: 1 mg/kg single intravenous injection, after 24 h of hypoxia treatment. On the procedure:
2. Animal model: SPF-grade SD male rats, 220-240 g of the weight, and hypoxia (the oxygen content was 11%) treatment. 4. Administration mode: before the hypoxia treatment, a single intravenous injection was administered to each rat in the hypoxia treatment administration group. 7. Hematoxylin-eosin (H&E) staining: Lung tissues of the hypoxia treatment (24 h) control group and the hypoxia treatment (24 h) administration group (dose: 1 mg/kg) were taken for paraffin section preparation, staining, and case analysis. 1) Paraffin sections were dewaxed to water: the sections were sequentially placed in xylene I for 20 min, xylene II for 20 min, anhydrous ethanol I for 5 min, anhydrous ethanol II for 5 min, and 75% alcohol for 5 min, and finally washed with tap water. 2) Hematoxylin staining: the sections were placed in hematoxylin staining solution and stained for 3-5 min, then washed with the tap water, and differentiated with differentiation solution, then washed with the tap water. It returned to blue by blue returning solution, and finally it was washed with running water. 3) Eosin staining: the sections were sequentially dehydrated with 85% and 95% of gradient alcohol for 5 min respectively, and placed in eosin staining solution and stained for 5 min. […]

As for `C=CCc1cc(N)c(O)c(-c2ccc(O)c(CC=C)c2)c1` [Compound 1, 3′, 5-diallyl-3-amino-[1,1′-biphenyl]-2,4′-diol], the “respiratory rate (RR) vs control group” value in test [1] (0.58 mg/kg single intravenous injection, after 24 h of hypoxia treatment) is “lower than that of the control group, and the different was significant”. Also, the “blood oxygen partial pressure (PO2) vs control group” value in test [2] (0.58 mg/kg single intravenous injection before hypoxia, after 24 h of hypoxia treatment, p=0.0012) is “significantly higher than those of the control group”. In addition, the “blood oxygen saturation (SO2) vs control group” value in test [2] (0.58 mg/kg single intravenous injection before hypoxia, after 24 h of hypoxia treatment, p=0.019) is “significantly higher than those of the control group”.
For the compound `C=CCc1cc(NC(=O)[C@@H](N)CCCCN)c(O)c(-c2ccc(O)c(CC=C)c2)c1.Cl.Cl` [Compound 2, (S)-2,6-diamino-N-(3′,5-diallyl-2,4′-dihydroxy-[1,1′-biphenyl]-3-yl) hexanamide dihydrochloride], the “lung tissue injuries (H&E pathological analysis) vs control group” value in test [3] is reported as “able to alleviate the tissue injuries caused by hypoxia (anoxia)”. In addition, the “respiratory rate (RR) vs control group” value in test [1] (1 mg/kg single intravenous injection, after 6 h of hypoxia treatment) was “lower than that of the control group, and the difference was significant”; in test [1] (1 mg/kg single intravenous injection, after 24 h of hypoxia treatment) it was “lower than that of the control group, and the difference was significant”; in test [1] (40 mg/kg single gavage (intragastric) administration, after 24 h of hypoxia treatment) it was “lower than that of the control group, and the difference was significant”. Moreover, the “blood oxygen saturation (SO2) vs control group” value was “higher than that of the control group, and the difference was significant” in test [2] (0.25 mg/kg single intravenous injection, after 1 h of hypoxia treatment, p=0.023); “higher than those of the control group, and the difference was significant” in test [2] (0.25 mg/kg single intravenous injection, after 6 h of hypoxia treatment, p=0.015); “higher than that of the control group, and the difference was significant” in test [2] (1 mg/kg single intravenous injection, after 6 h of hypoxia treatment, p=0.0012); “higher than those of the control group, and the difference was significant” in test [2] (1 mg/kg single intravenous injection, after 24 h of hypoxia treatment, p=0.001); “higher than those of the control group, and the difference was significant” in test [2] (40 mg/kg single gavage (intragastric) administration, after 24 h of hypoxia treatment, p=0.016). Also, the “blood oxygen partial pressure (PO2) vs control group” value in test [2] (0.25 mg/kg single intravenous injection, after 1 h of hypoxia treatment, p=0.059) is “higher than that of the control group, but the difference was not significant”; in test [2] (0.25 mg/kg single intravenous injection, after 6 h of hypoxia treatment, p=0.018) it was “higher than those of the control group, and the difference was significant”; in test [2] (1 mg/kg single intravenous injection, after 6 h of hypoxia treatment, p=0.003), “higher than that of the control group, and the difference was significant”; in test [2] (1 mg/kg single intravenous injection, after 24 h of hypoxia treatment, p=0.0012), “higher than those of the control group, and the difference was significant”; in test [2] (40 mg/kg single gavage (intragastric) administration, after 24 h of hypoxia treatment, p=0.036) it was “higher than those of the control group, and the difference was significant”.
For `C=CCc1cc(NC(=O)[C@@H](N)CCSC)c(O)c(-c2ccc(O)c(CC=C)c2)c1.Cl` [Compound 3, (S)-2-amino-N-(3′,5-diallyl-2,4′-dihydroxy-[1,1′-biphenyl]-3-yl)-4-(methylthio) butanamide hydrochloride], the “respiratory rate (RR) vs control group” value in test [1] (0.93 mg/kg single intravenous injection, after 24 h of hypoxia treatment) was “lower than that of the control group, and the difference was significant”. For the same compound, the “blood oxygen saturation (SO2) vs control group” value in test [2] (0.93 mg/kg single intravenous injection, after 24 h of hypoxia treatment, p=0.06) is listed as “higher than that of the control group”.
Take `C=CCc1cc(NC(C)=O)c(O)c(-c2ccc(O)c(CC=C)c2)c1` [Compound 4, N-(3′,5-diallyl-2,4′-dihydroxy-[1,1′-biphenyl]-3-yl) acetamide]: the “respiratory rate (RR) vs control group” value in test [1] (0.67 mg/kg single intravenous injection, after 24 h of hypoxia treatment) was “lower than that of the control group, and the difference was significant”. For the same compound, in test [2] (0.67 mg/kg single intravenous injection, after 24 h of hypoxia treatment, p=0.0023), the “blood oxygen saturation (SO2) vs control group” value is given as “higher than those of the control group”. Further, in test [2] (0.67 mg/kg single intravenous injection, after 24 h of hypoxia treatment, p=0.023), the “blood oxygen partial pressure (PO2) vs control group” value is listed as “higher than those of the control group”.
